Experimental data published in patent publication US11149020B2, “MAP kinase modulators and uses thereof” (The Trustees of Columbia University in the City of New York, priority 2013, dated 2021).
Like-named read-outs stand apart in the source and are kept apart here.

Legend:
[1] = target: human p38α MAPK (Homo sapiens (Human), UniProt Q16539); test: Kinase assay, concentration dependent inhibition of p38α MAPK; assay type: biochemical; conditions: for Ki: kinetic analyses
[2] = target: CK-1δ (Homo sapiens (Human), UniProt P48730); test: Kinase assay, concentration dependent inhibition of CK-1δ
[3] = test system: murine microglial BV-2 cell line; test: cells; assay type: cell-based; conditions: BV-2 cells, TLR2, TLR4, TLR7/8, TLR9 ligands
[4] = test system: LPS-induced IL-1β in brain cortex; test: In vivo LPS-induced brain cortex IL-1β; set-up: species or system mouse; conditions: oral administration, 20 mg/Kg, 6 hrs after LPS
[5] = test system: APP/PS1 mice; test: Fear conditioning (contextual and cued) in APP/PS1 mice; conditions: 2.5 mg/kg, daily, p.o., from 2 months of age
[6] = test system: APP/PS1 mice; test: LTP in APP/PS1 mice; assay type: in vivo, mouse; conditions: 2.5 mg/kg, daily, p.o., from 2 months until 3-4 months of age
[7] = test system: APP/PS1 mice; test: RAWM in APP/PS1 mice; conditions: 2.5 mg/kg, daily, p.o., from 2 months of age

human p38α MAPK, sequence (Q16539 whole entry): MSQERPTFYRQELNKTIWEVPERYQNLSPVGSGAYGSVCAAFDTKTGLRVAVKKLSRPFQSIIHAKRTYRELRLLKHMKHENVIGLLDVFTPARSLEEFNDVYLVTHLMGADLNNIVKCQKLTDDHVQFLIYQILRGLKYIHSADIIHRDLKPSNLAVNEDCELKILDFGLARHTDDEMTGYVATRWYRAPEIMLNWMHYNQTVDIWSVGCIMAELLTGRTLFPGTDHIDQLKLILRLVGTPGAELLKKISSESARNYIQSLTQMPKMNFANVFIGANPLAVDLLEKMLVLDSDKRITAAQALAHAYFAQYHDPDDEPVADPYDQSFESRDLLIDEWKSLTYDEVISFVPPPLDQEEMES
CK-1δ, sequence (P48730 whole entry): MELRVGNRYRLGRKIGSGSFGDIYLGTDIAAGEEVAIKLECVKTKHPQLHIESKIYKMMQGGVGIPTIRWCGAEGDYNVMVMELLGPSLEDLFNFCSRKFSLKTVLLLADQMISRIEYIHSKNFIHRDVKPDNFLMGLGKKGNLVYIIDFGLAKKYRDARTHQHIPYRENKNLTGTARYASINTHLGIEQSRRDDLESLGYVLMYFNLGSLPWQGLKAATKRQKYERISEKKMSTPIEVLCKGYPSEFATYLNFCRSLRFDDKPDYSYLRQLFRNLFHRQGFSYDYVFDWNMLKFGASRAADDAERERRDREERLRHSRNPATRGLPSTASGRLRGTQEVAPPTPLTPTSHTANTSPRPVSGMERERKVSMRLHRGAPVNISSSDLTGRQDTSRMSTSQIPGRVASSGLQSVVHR

For `c1ccc2cc(-c3nnc(N4CCOCC4)cc3-c3ccncc3)ccc2c1` [33 (MW-152), 4-(6-(naphthalen-2-yl)-5-(pyridin-4-yl)pyridazin-3-yl)morpholine], the IC50 [1] was 481 nM.

Compound `CN(C)c1cc(-c2ccncc2)c(-c2ccc(F)c3ccccc23)nn1` [17 (MW-078), 6-(4-fluoronaphthalen-1-yl)-N,N-dimethyl-5-(pyridin-4-yl)pyridazin-3-amine] has an IC50 [1] of 1780 nM and an IC50 ([2]; read-out: Ck1δ IC50) greater than 10000 nM.

With `c1ccc2cc(-c3nnc(NC4CC4)cc3-c3ccncc3)ccc2c1` [35 (MW-153), N-cyclopropyl-6-(naphthalen-2-yl)-5-(pyridin-4-yl)pyridazin-3-amine] the IC50 [1] was 189 nM.

`CN1CCN(c2cc(-c3ccncc3)c(-c3ccc4cccc(F)c4c3)nn2)CC1` [52 (MW-032), 3-(8-Fluoronaphthalen-2-yl)-6-(4-methylpiperazin-1-yl)-4-(pyridin-4-yl)pyridazine] was tested, and the IC50 [1] was 735 nM and the IC50 ([2]; read-out: Ck1δ IC50) was 17900 nM.

Work on `CN1CCN(c2cc(-c3ccncc3)c(-c3cc(F)cc4ccccc34)nn2)CC1` [53 (MW-059), 3-(3-fluoronaphthalen-1-yl)-6-(4-methylpiperazin-1-yl)-4-(pyridin-4-yl)pyridazine] yielded an IC50 [1] greater than 20000 nM and an IC50 ([2]; read-out: Ck1δ IC50) of 119000 nM.

`CN(C)c1cc(-c2ccncc2)c(-c2ccc3[nH]ccc3c2)nn1` [22 (MW-066), 6-(1H-indol-5-yl)-N,N-dimethyl-5-(pyridin-4-yl)pyridazin-3-amine] showed an IC50 [1] of 369 nM and an IC50 ([2]; read-out: Ck1δ IC50) of 4280 nM.

`CN(C)c1cc(-c2ccncc2)c(-c2cccc3ccccc23)nn1` [MW-181 (1)] was tested, and the “IL-1β production with diverse TLR ligands” value [3] was “inhibition of increased cytokine production by glia in response to LPS (IC50=820±30 nM) and other TLR ligands” and the “LPS-induced IL-1β levels in brain cortex” value [4] was “in vivo suppression of increased brain levels of IL-1β after oral administration”.

`c1ccc2c(-c3nnc(NC4CC4)cc3-c3ccncc3)cccc2c1` [13 (MW-107), N-cyclopropyl-6-(naphthalen-1-yl)-5-(pyridin-4-yl)pyridazin-3-amine] showed an IC50 [1] of 264 nM, a Ki [1] of 91 nM and an IC50 ([2]; read-out: Ck1δ IC50) greater than 10000 nM.

For `CNc1cc(-c2ccncc2)c(-c2ccc3ccccc3c2)nn1` [16 (MW-200), N-methyl-6-(naphthalen-2-yl)-5-(pyridin-4-yl)pyridazin-3-amine], the IC50 [1] was 175 nM, the Ki [1] was 100 nM and the IC50 ([2]; read-out: Ck1δ IC50) was 4980 nM.

`CN1CCN(c2cc(-c3ccncc3)c(-c3cccc4cc(F)ccc34)nn2)CC1` [54 (MW-197), 3-(6-fluoronaphthalen-1-yl)-6-(4-methylpiperazin-1-yl)-4-(pyridin-4-yl)pyridazine] showed an IC50 [1] of 669 nM and an IC50 ([2]; read-out: Ck1δ IC50) of 136000 nM.

With `CC(C)Nc1cc(-c2ccncc2)c(-c2cccc3ccccc23)nn1` [25 (MW-031), N-isopropyl-6-(naphthalen-1-yl)-5-(pyridin-4-yl)pyridazin-3-amine] the IC50 [1] was 162 nM and the IC50 ([2]; read-out: Ck1δ IC50) was greater than 10000 nM.

`CC(C)Nc1cc(-c2ccncc2)c(-c2ccc3ccccc3c2)nn1` [26 (MW-025), N-isopropyl-6-(naphthalen-2-yl)-5-(pyridin-4-yl)pyridazin-3-amine] showed an IC50 [1] of 130 nM and an IC50 ([2]; read-out: Ck1δ IC50) of 2620 nM.

Compound `CN1CCN(c2cc(-c3ccncc3)c(-c3cccc4[nH]ccc34)nn2)CC1` [29 (MW-108), 4-(6-(4-methylpiperazin-1-yl)-4-(pyridin-4-yl)pyridazin-3-yl)-1H-indole] has an IC50 [1] of 3070 nM and an IC50 ([2]; read-out: Ck1δ IC50) of 6130 nM.

`c1ccc2c(-c3nnc(N4CCCCC4)cc3-c3ccncc3)cccc2c1` [12 (MW-124), 3-(naphthalen-1-yl)-6-(piperidin-1-yl)-4-(pyridin-4-yl)pyridazine] was tested, and the IC50 [1] was 191 nM and the IC50 ([2]; read-out: Ck1δ IC50) was greater than 10000 nM.

`CNc1cc(-c2ccncc2)c(-c2cccc3ccccc23)nn1` [15 (MW-156), N-methyl-6-(naphthalen-1-yl)-5-(pyridin-4-yl)pyridazin-3-amine] gave an IC50 [1] of 289 nM, a Ki [1] of 276 nM and an IC50 ([2]; read-out: Ck1δ IC50) greater than 10000 nM.

For `CN1CCN(c2cc(-c3ccncc3)c(-c3ccc4ccc(F)cc4c3)nn2)CC1` [50 (MW-017), 3-(7-Fluoronaphthalen-2-yl)-6-(4-methylpiperazin-1-yl)-4-(pyridin-4-yl)pyridazine], the IC50 [1] was 974 nM and the IC50 ([2]; read-out: Ck1δ IC50) was 16800 nM.

With `c1cc(-c2nnc(N3CCNCC3)cc2-c2ccncc2)c2cc[nH]c2c1` [30 (MW-126), 4-(6-(piperazin-1-yl)-4-(pyridin-4-yl)pyridazin-3-yl)-1H-indole] the IC50 [1] was 753 nM and the IC50 ([2]; read-out: Ck1δ IC50) was 2630 nM.

For `CN1CCN(c2cc(-c3ccncc3)c(-c3cccc4ccccc34)nn2)CC1` [11 (MW-122), 6-(4-methylpiperazin-1-yl)-3-(naphthalen-1-yl)-4-(pyridin-4-yl)pyridazine], the IC50 [1] was 185 nM, the Ki [1] was 98 nM and the IC50 ([2]; read-out: Ck1δ IC50) was greater than 10000 nM.

In the case of `CN1CCN(c2cc(-c3ccncc3)c(-c3cccc4c(F)cccc34)nn2)CC1` [55 (MW-063), 3-(5-fluoronaphthalen-1-yl)-6-(4-methylpiperazin-1-yl)-4-(pyridin-4-yl)pyridazine], the IC50 [1] is reported as 526 nM and the IC50 ([2]; read-out: Ck1δ IC50) is reported as 32500 nM.

`CN(C)c1cc(-c2ccncc2)c(-c2cccc3cnccc23)nn1` [20 (MW-082), 6-(isoquinolin-5-yl)-N,N-dimethyl-5-(pyridin-4-yl)pyridazin-3-amine] was tested, and the IC50 [1] was greater than 3200 nM and the IC50 ([2]; read-out: Ck1δ IC50) was greater than 10000 nM.

Compound `CCCN(C)c1cc(-c2ccncc2)c(-c2cccc3ccccc23)nn1` [24 (MW-010), N-methyl-6-(naphthalen-1-yl)-N-propyl-5-(pyridin-4-yl)pyridazin-3-amine] has an IC50 [1] of 188 nM and an IC50 [2] greater than 10000 nM.

For `CCN(CC)c1cc(-c2ccncc2)c(-c2cccc3ccccc23)nn1` [23 (MW-033), N,N-diethyl-6-(naphthalen-1-yl)-5-(pyridin-4-yl)pyridazin-3-amine], the IC50 [1] was 162 nM and the IC50 ([2]; read-out: Ck1δ IC50) was greater than 10000 nM.

`COc1ccc2ccccc2c1-c1nnc(N(C)C)cc1-c1ccncc1` [19 (MW-155), 6-(2-methoxynaphthalen-1-yl)-N,N-dimethyl-5-(pyridin-4-yl)pyridazin-3-amine] showed an IC50 [1] greater than 1600 nM.

`CN(C)c1cc(-c2ccncc2)c(-c2cc(F)cc3cccnc23)nn1` [21 (MW-165), 6-(6-fluoroquinolin-8-yl)-N,N-dimethyl-5-(pyridin-4-yl)pyridazin-3-amine] gave an IC50 [1] greater than 1600 nM.

With `Fc1cnccc1-c1cc(C2CC2)nnc1-c1ccc2ccccc2c1` [10 (MW-167), 6-Cyclopropyl-4-(3-fluoropyridin-4-yl)-3-(naphthalen-2-yl)pyridazine] the IC50 [1] was 307 nM, the Ki [1] was 86 nM and the IC50 ([2]; read-out: Ck1δ IC50) was greater than 10000 nM.

With `CN1CCN(c2cc(-c3ccncc3F)c(-c3ccc4ccccc4c3)nn2)CC1` [37 (MW-149), 4-(3-fluoropyridin-4-yl)-6-(4-methylpiperazin-1-yl)-3-(naphthalen-2-yl)pyridazine] the IC50 [1] was 235 nM and the IC50 ([2]; read-out: Ck1δ IC50) was 4620 nM.

With `CN1CCN(c2cc(-c3ccncc3F)c(-c3cccc4ccccc34)nn2)CC1` [14 (MW-109), 4-(3-fluoropyridin-4-yl)-6-(4-methylpiperazin-1-yl)-3-(naphthalen-1-yl)pyridazine] the IC50 [1] was 131 nM and the IC50 ([2]; read-out: Ck1δ IC50) was greater than 10000 nM.

Work on `CN(C)c1cc(-c2ccncc2)c(-c2cccc3ccc(F)cc23)nn1` [18 (MW-085), 6-(7-fluoronaphthalen-1-yl)-N,N-dimethyl-5-(pyridin-4-yl)pyridazin-3-amine] yielded an IC50 [1] of 1170 nM.

In the case of `c1ccc2c(-c3nnc(C4CC4)cc3-c3ccncc3)cccc2c1` [7 (MW-077), 6-cyclopropyl-3-(naphthalen-1-yl)-4-(pyridin-4-yl)pyridazine], the “contextual fear memory defect in APP/PS1 mice” value [5] is reported as “rescue the defect in contextual fear learning”, the “LTP defect in APP/PS1 mice” value [6] is reported as “rescue defects in LTP” and the “spatial/reference memory defect (RAWM) in APP/PS1 mice” value [7] is reported as “rescue defects in spatial memory”. For the same compound, the IC50 [1] was 419 nM, the Ki [1] was 186 nM and the IC50 ([2]; read-out: Ck1δ IC50) was greater than 10000 nM.

`CN(C)c1cnc(-c2cccc3ccccc23)c(-c2ccncc2)n1` [44 (MW-064), N,N-dimethyl-5-(naphthalen-1-yl)-6-(pyridin-4-yl)pyrazin-2-amine] was tested, and the IC50 [1] was 456 nM, the Ki [1] was 343 nM and the IC50 ([2]; read-out: Ck1δ IC50) was greater than 10000 nM.

Work on `CN1CCC(c2cc(-c3ccncc3)c(-c3ccc4ccccc4c3)nn2)CC1` [36 (MW-164), 6-(1-methylpiperidin-4-yl)-3-(naphthalen-2-yl)-4-(pyridin-4-yl)pyridazine] yielded an IC50 [1] of 224 nM, a Ki [1] of 101 nM and an IC50 [2] of 11200 nM.

`CCN1CCN(c2cc(-c3ccncc3)c(-c3ccc4ccccc4c3)nn2)CC1` [62 (MW-026), 6-(4-ethylpiperazin-1-yl)-3-(naphthalen-2-yl)-4-(pyridin-4-yl)pyridazine] was tested, and the IC50 [1] was 520 nM and the IC50 ([2]; read-out: Ck1δ IC50) was 4990 nM.

With `c1ccc2cc(-c3nnc(C4CC4)cc3-c3ccncc3)ccc2c1` [9 (MW-125), 6-Cyclopropyl-4-(pyridin-4-yl)-3-(naphthalen-2-yl)pyridazine] the “contextual fear memory defect in APP/PS1 mice” value [5] was “rescue the defect in contextual fear learning”, the “LTP defect in APP/PS1 mice” value [6] was “rescue defects in LTP” and the “spatial/reference memory defect (RAWM) in APP/PS1 mice” value [7] was “rescue defects in spatial memory”. It also gave an IC50 [1] of 412 nM, a Ki [1] of 127 nM and an IC50 ([2]; read-out: Ck1δ IC50) greater than 10000 nM.
